According to PubChem BioAssay AID1918944 (Molecular Pharmacology Branch, DTP, NCI, 2023):
pIC50: −log10 of the molar value. Where “and” joins values, the source holds several entries; their conditions need not be identical. Identical values can stand only once. Each block holds one compound with its values, some of them ahead of it.

System: 786-0 complex spheroid viability
Test: Anticancer human tumor 786-0 cell line growth inhibition;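 note: spheroids exposed to agents for seven days before readout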
Details: for viability, T/C: stronger effect = lower value
How it was run: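 Complex spheroids of tumor cells with HUVEC and human MSCs, exposed to iadademstat combined with other agents. Each agent tested in half-log steps from near clinical Cmax (else 10 microM top), DMSO ≤0.25%.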

[1] = curve of first compound, second compound 0.1 µM
[2] = curve of first compound, second compound 0.316 µM
[3] = curve of first compound, second compound 1 µM
[4] = curve of first compound, second compound 3.16 µM
[5] = curve of first compound, second compound 10 µM

Structure (SMILES): Nc1ccccc1NC(=O)c1ccc(CNC(=O)OCc2cccnc2)cc1 + NC1CCC(NC2CC2c2ccccc2)CC1
pIC50 [1]: 5.78 | pIC50 [2]: 5.81 | pIC50 [3]: 5.81 | pIC50 [4]: 5.89 | pIC50 [5]: 6.12 | viability, T/C (second compound 0.1 µM, first compound 0.00949 µM): 115% | viability, T/C (second compound 0.1 µM, first compound 0.03 µM): 121% | viability, T/C (second compound 0.1 µM, first compound 0.0949 µM): 113% | viability, T/C (second compound 0.1 µM, first compound 0.3 µM): 110% | viability, T/C (second compound 0.1 µM, first compound 0.949 µM): 80.9% | viability, T/C (second compound 0.1 µM, first compound 3 µM): 17.7% | viability, T/C (second compound 0.316 µM, first compound 0.00949 µM): 123% | viability, T/C (second compound 0.316 µM, first compound 0.03 µM): 121% | viability, T/C (second compound 0.316 µM, first compound 0.0949 µM): 119% | viability, T/C (second compound 0.316 µM, first compound 0.3 µM): 109% | viability, T/C (second compound 0.316 µM, first compound 0.949 µM): 74.2% | viability, T/C (second compound 0.316 µM, first compound 3 µM): 17.2% | viability, T/C (second compound 1 µM, first compound 0.00949 µM): 116% | viability, T/C (second compound 1 µM, first compound 0.03 µM): 116% | viability, T/C (second compound 1 µM, first compound 0.0949 µM): 112% | viability, T/C (second compound 1 µM, first compound 0.3 µM): 103% | viability, T/C (second compound 1 µM, first compound 0.949 µM): 74% | viability, T/C (second compound 1 µM, first compound 3 µM): 16.7% | viability, T/C (second compound 3.16 µM, first compound 0.00949 µM): 107% | viability, T/C (second compound 3.16 µM, first compound 0.03 µM): 105% | viability, T/C (second compound 3.16 µM, first compound 0.0949 µM): 103% | viability, T/C (second compound 3.16 µM, first compound 0.3 µM): 93.6% | viability, T/C (second compound 3.16 µM, first compound 0.949 µM): 62% | viability, T/C (second compound 3.16 µM, first compound 3 µM): 15.1% | viability, T/C (second compound 10 µM, first compound 0.00949 µM): 85.5% | viability, T/C (second compound 10 µM, first compound 0.03 µM): 82.7% | viability, T/C (second compound 10 µM, first compound 0.0949 µM): 86.1% | viability, T/C (second compound 10 µM, first compound 0.3 µM): 78.1% | viability, T/C (second compound 10 µM, first compound 0.949 µM): 43% | viability, T/C (second compound 10 µM, first compound 3 µM): 9.91%

pIC50 (curve of compound): < 5.52
Structure (SMILES): CCN(c1cc(-c2ccc(CN3CCOCC3)cc2)cc(C(=O)NCc2c(C)cc(C)[nH]c2=O)c1C)C1CCOCC1
viability, T/C (compound 0.00949 µM): 100% | viability, T/C (compound 0.03 µM): 103% and 105% | viability, T/C (compound 0.0949 µM): 106% and 100% | viability, T/C (compound 0.3 µM): 104% and 102% | viability, T/C (compound 0.949 µM): 102% and 98% | viability, T/C (compound 3 µM): 97.4% and 96.9%

Structure (SMILES): CC1COCCN1c1cc(-c2ccnn2C)c2ccnc(-c3ccn[nH]3)c2n1 (configuration not stated) + NC1CC1c1ccc(-c2cccc(O)c2)cc1
pIC50 [1]: 7.32 | pIC50 [2]: 7.34 | pIC50 [3]: 7.36 | pIC50 [4]: 7.51 | pIC50 [5]: 7.76 | viability, T/C (second compound 0.1 µM, first compound 0.00316 µM): 119% | viability, T/C (second compound 0.1 µM, first compound 0.01 µM): 108% | viability, T/C (second compound 0.1 µM, first compound 0.0316 µM): 63.8% | viability, T/C (second compound 0.1 µM, first compound 0.1 µM): 25.9% | viability, T/C (second compound 0.1 µM, first compound 0.316 µM): 16.2% | viability, T/C (second compound 0.1 µM, first compound 1 µM): 17.9% | viability, T/C (second compound 0.316 µM, first compound 0.00316 µM): 115% | viability, T/C (second compound 0.316 µM, first compound 0.01 µM): 107% | viability, T/C (second compound 0.316 µM, first compound 0.0316 µM): 62.5% | viability, T/C (second compound 0.316 µM, first compound 0.1 µM): 22.7% | viability, T/C (second compound 0.316 µM, first compound 0.316 µM): 15% | viability, T/C (second compound 0.316 µM, first compound 1 µM): 17.3% | viability, T/C (second compound 1 µM, first compound 0.00316 µM): 111% | viability, T/C (second compound 1 µM, first compound 0.01 µM): 111% | viability, T/C (second compound 1 µM, first compound 0.0316 µM): 61.5% | viability, T/C (second compound 1 µM, first compound 0.1 µM): 22.6% | viability, T/C (second compound 1 µM, first compound 0.316 µM): 15.8% | viability, T/C (second compound 1 µM, first compound 1 µM): 17% | viability, T/C (second compound 3.16 µM, first compound 0.00316 µM): 112% | viability, T/C (second compound 3.16 µM, first compound 0.01 µM): 98.5% | viability, T/C (second compound 3.16 µM, first compound 0.0316 µM): 48.2% | viability, T/C (second compound 3.16 µM, first compound 0.1 µM): 23.1% | viability, T/C (second compound 3.16 µM, first compound 0.316 µM): 15% | viability, T/C (second compound 3.16 µM, first compound 1 µM): 18.4% | viability, T/C (second compound 10 µM, first compound 0.00316 µM): 103% | viability, T/C (second compound 10 µM, first compound 0.01 µM): 70.2% | viability, T/C (second compound 10 µM, first compound 0.0316 µM): 28.4% | viability, T/C (second compound 10 µM, first compound 0.1 µM): 17% | viability, T/C (second compound 10 µM, first compound 0.316 µM): 12.9% | viability, T/C (second compound 10 µM, first compound 1 µM): 19.6%
